According to patent US8790902B2, “Microorganisms having enhanced tolerance to inhibitors and stress” (UT-Batelle, LLC, priority 2009, dated 2014):
“Also recorded” adds a separate entry of the source. Where two headings read alike, the source gives them in different places.

Experiments:
Zymomonas mobilis = conditions: cited from earlier work
[1] = system: Zymomonas mobilis ZM4 wild-type; experiment: Bioscreen growth of Z. mobilis ZM4 wild-type in RM with inhibitors; assay type: cell-based; conditions: for Relative inhibitory effect on wild-type Z. mobilis growth among sodium and acetate salts: 195 mM in RM; for Final Cell Density / Growth rate: ZM4
Method: (§1) FIGS. 3A-3C. […] Z. mobilis strains were grown in RM (pH5.0) overnight, 20-μL culture were then transferred into 250-μL, RM media in the Bioscreen plate. […] Strains included in this study are: ZM4: Zymomonas mobilis ZM4 wild-type; AcR: ZM4 acetate tolerant mutant (Joachimstahl 1998); ZM4 (p42-0347): ZM4 containing a gateway plasmid p42-0347 over-expressing ZM4 gene ZMO0347; AcRIM0347: AcR insertional mutant of ZMO0347; AcRIM0347 (p42-0347): AcRIM0347 containing gateway plasmid p42-0347 over-expressing ZM4 gene ZMO0347. […] Triplicates were used for each condition.
(§2) FIGS. 4A-4E. […] Z. mobilis strains were grown in RM (pH5.0) overnight, 5-μL culture were then transferred into 250-μL RM media in the Bioscreen plate. […] Strains included in this study are: ZM4: Zymomonas mobilis ZM4 wild-type; AcR: ZM4 acetate tolerant mutant; ZM4 (p42-0347): ZM4 containing a gateway plasmid p42-0347 to express ZM4 gene ZMO0347; AcRIM0347: AcR insertional mutant of ZMO0347; AcRIM0347 (p42-0347): AcRIM0347 containing gateway plasmid p42-0347. […] Duplicate biological replicates were used for each condition.
(§3) FIGS. 5A-5E. […] Z. mobilis strains were grown in RM (pH 5.0) overnight, 5-μL culture were then transferred into 250-μL RM media in the Bioscreen plate. […] Strains included in this study are: ZM4: Zymomonas mobilis ZM4 wild-type; AcR: ZM4 acetate tolerant mutant; AcRIM0347: AcR insertional mutant of ZMO0347; AcRIM0347 (p42-0347): AcRIM0347 containing gateway plasmid p42-0347 over-expressing ZM4 gene ZMO0347.
(§4) American Type Culture Collection (ATCC31821) and the Z. mobilis acetate tolerant strain AcR has been described previously (Joachimsthal et al. 2000). ZM4 and AcR were cultured in RM medium at 30° C. S. cerevisiae wild-type, deletion mutant and GST-fusion ORF over-expression strains were obtained through Open Biosystems (Huntsville, Ala.). S. cerevisiae strains were cultured in rich YPD media. CM media with 2% glucose was used for S. cerevisiae wild-type and S. cerevisiae deletion mutants, CM media with 2% glucose minus uracil was used for S. cerevisiae GST-over expressing strains, 2% galactose was used to induce the GST-fusion strains. Plasmid-containing strains were routinely grown with antibiotics at the following concentrations (μg/mL): kanamycin of 50 for E. coli and 200 for ZM4; tetracycline, 10 for E. coli and 20 for ZM4; and gentamicin, 10 for E. coli. G418 of 200 for S. cerevisiae YKO deletion mutants. Growth was monitored turbidometrically by measuring optical density at 600nm periodically with the Bioscreen C automated microbiology growth curve analysis system (Growth Curve USA, Piscataway, N.J.).

[2] = system: AcR: ZM4 acetate tolerant mutant; assay type: cell-based, Zymomonas mobilis; conditions: for Final Cell Density / Growth rate: AcR
Method: as §1, §2, §3, §4

AcRIM0347 (p42-0347) = assay type: cell-based, Zymomonas mobilis; conditions: for Lag phase of AcRIM0347 (p42-0347) versus AcRIM0347 grown with inhibitor: Table 4, FIGS. 5A-5D
Method: as §1, §2, §3, §4

[3] = system: AcRIM0347: AcR insertional mutant of ZMO0347; assay type: cell-based, Zymomonas mobilis; conditions: for Reduction of growth rate and final cell density of AcRIM0347 compared to parental strain AcR / Growth of hfq mutant AcRIM0347 in the presence of acetate salt: 195 mM in RM; for Final Cell Density / Growth rate: AcRIM0347
Method: as §1, §2, §3, §4

ZM4 (p42-0347) = experiment: Bioscreen growth of ZM4 (p42-0347) in RM with sodium and acetate ions; assay type: cell-based, Zymomonas mobilis; conditions: for Final Cell Density / Growth rate: ZM4 (p42-0347), RM pH 5.0 supplemented with 195 mM of the chemical, anaerobic
Method: as §1, §2, §4

[4] = system: S. cerevisiae Lsm deletion mutants; assay type: cell-based
Method: (§5) FIGS. 6A-6B. […] S. cerevisiae strains were grown in CM with 2% glucose for wild-type BY4741 and the deletion mutants, CM with 2% glucose minus uracil for GST over-expression strains. Five-μL culture was then transferred into 300-μL CM broth in the Bioscreen plate.
(§6) FIGS. 7A-7P. […] S. cerevisiae strains were grown in CM with 2% glucose (CM+glucose) for wild-type BY4741 and the deletion mutants, CM with 2% glucose and 2% galactose minus uracil (CM+glucose+2% galactose) for GST overexpression strains. A 5-μL culture was then transferred into 250-μL CM broth in the Bioscreen plate.
American Type Culture Collection (ATCC31821) and the Z. mobilis acetate tolerant strain AcR has been described previously (Joachimsthal et al. 2000). ZM4 and AcR were cultured in RM medium at 30° C. S. cerevisiae wild-type, deletion mutant and GST-fusion ORF over-expression strains were obtained through Open Biosystems (Huntsville, Ala.). S. cerevisiae strains were cultured in rich YPD media. […] Growth was monitored turbidometrically by measuring optical density at 600nm periodically with the Bioscreen C automated microbiology growth curve analysis system (Growth Curve USA, Piscataway, N.J.).

[5] = system: S. cerevisiae Lsm protein over-expressing strains; experiment: Bioscreen growth of S. cerevisiae Lsm protein over-expressing (GST) strains with inhibitors; assay type: cell-based
Method: as §5, §6, §4

ZM4 = conditions: ethanol production; cited from earlier work
AcR mutant = conditions: cited from earlier work
[6] = system: recombinant Zymomonas mobilis 8b; conditions: pure glucose/xylose solutions; cited from earlier work
[7] = pH 5.0; cited from earlier work
Z. mobilis = experiment: Bioscreen growth of Z. mobilis with pretreatment inhibitors (strain not specified); assay type: cell-based, Zymomonas mobilis; conditions: for Relative inhibitory effect on Z. mobilis among vanillin, furfural and HMF: Table 4 conditions; for Time to complete active growth and reach the stationary phase: in the presence of the inhibitor, 11 h without any inhibitor (FIGS. 5A-5D)
Method: FIGS. 5A-5E. Z. mobilis Hfq conferred tolerance to different classes of pretreatment inhibitors. Z. mobilis strains were grown in RM (pH 5.0) overnight, 5-μL culture were then transferred into 250-μL RM media in the Bioscreen plate. The growth differences of different strains were monitored by Bioscreen (Growth Curves USA, NJ) under anaerobic conditions in RM, pH 5.0 (A), RM with 1 g/L vanillin, pH 5.0 (B), 1 g/L furfural, pH 5.0 (C), 1 g/L HMF, pH 5.0 (D) and 0.001% H2O2 (E). Strains included in this study are: ZM4: Zymomonas mobilis ZM4 wild-type; AcR: ZM4 acetate tolerant mutant; AcRIM0347: AcR insertional mutant of ZMO0347; AcRIM0347 (p42-0347): AcRIM0347 containing gateway plasmid p42-0347 over-expressing ZM4 gene ZMO0347. This experiment has been repeated at least three times with similar result for hydrogen peroxide growth and in duplicate for the vanillin growth.
as §4

[8] = 16 g/L (195 mM) sodium acetate in RM
[9] = RM pH 5.0 supplemented with 195 mM of the chemical, anaerobic
[10] = AcRIM0347 (p42-0347), RM pH 5.0 supplemented with 195 mM of the chemical, anaerobic
[11] = RM pH 5.0 supplemented with 195 mM of the chemical, anaerobic, NA = lack of growth
[12] = RM with HMF 0.75 g/L, furfural or vanillin 1 g/L
[13] = AcRIM0347(p42-0347), RM with HMF 0.75 g/L, furfural or vanillin 1 g/L

| Compound | Final Cell Density [2, 9] [OD600 nm] | Growth rate [2, 9] [h⁻¹] | Final Cell Density (AcRIM0347 (p42-0347); [10]) [OD600 nm] | Growth rate (AcRIM0347 (p42-0347); [10]) [h⁻¹] | Final Cell Density (ZM4 (p42-0347)) [OD600 nm] | Growth rate (ZM4 (p42-0347)) [h⁻¹] | Final Cell Density [1, 12] [OD600 nm] | Growth rate [1, 12] [h⁻¹] | Final Cell Density [2, 12] [OD600 nm] | Growth rate [2, 12] [h⁻¹] | Final Cell Density (AcRIM0347 (p42-0347); [13]) [OD600 nm] | Growth rate (AcRIM0347 (p42-0347); [13]) [h⁻¹] | Lag phase of AcRIM0347 (p42-0347) versus AcRIM0347 grown with inhibitor (AcRIM0347 (p42-0347)) | Final Cell Density [3, 12] [OD600 nm] | Growth rate [3, 12] [h⁻¹] | Time to complete active growth and reach the stationary phase (Z. mobilis) | Final Cell Density [1, 11] [OD600 nm] | Growth rate [1, 11] [h⁻¹] | other results |
| --- | --- | --- | --- | --- | --- | --- | --- | --- | --- | --- | --- | --- | --- | --- | --- | --- | --- | --- | --- |
| CCO [ethanol] |  |  |  |  |  |  |  |  |  |  |  |  |  |  |  |  |  |  | Ethanol tolerance (Zymomonas mobilis): 12% |
| CC(=O)[O-].[Na+] [NaAc, sodium acetate] | 0.63 ± 0.02 | 0.29 ± 0.04 | 0.45 ± 0.002 | 0.16 ± 0.002 | 0.59 ± 0.002 | 0.27 ± 0.004 |  |  |  |  |  |  |  |  |  |  |  |  | Relative inhibitory effect on wild-type Z. mobilis growth among sodium and acetate salts [1]: most significant inhibitory effect; Growth of wild-type ZM4 in the presence of sodium acetate [1, 8]: unable to grow; also recorded: completely inhibited; Reduction of growth rate and final cell density of AcRIM0347 compared to parental strain AcR [3]: about 60%; Final Cell Density [3, 11]: 0.25 ± 0.001 OD600 nm; Growth rate [3, 11]: 0.12 ± 0.004 h⁻¹; Growth of ZM4 (p42-0347) in the presence of sodium acetate (ZM4 (p42-0347); [8]): able to grow; Growth of Lsm deletion mutants in the presence of sodium acetate ([4]; sodium acetate 40 g/L, Lsm1, 6, 7, 9, 12, 13, 16 deletions): negative effects on the growth; Growth of Lsm protein over-expressing strains in the presence of sodium acetate ([5]; sodium acetate 40 g/L, Lsm1, 6, 9, 12, 13, 16): enhanced growth; Sodium acetate concentration above which parent ZM4 was inhibited significantly (ZM4): above 12 g/L; Sodium acetate concentration at which AcR was capable of efficient ethanol production (AcR mutant): 20 g/L |
| CC(=O)O [acetic acid] |  |  |  |  |  |  |  |  |  |  |  |  |  |  |  |  |  |  | Acetic acid concentration tolerated [6]: up to 16 g/L; Fraction in the uncharged and undissociated form (HAc) [7]: 36% |
| O=Cc1ccc(CO)o1 [HMF, hydroxymethyl furfural] |  |  |  |  |  |  | 0.93 ± 0.003 | 0.36 ± 0.02 | 0.96 ± 0.006 | 0.35 ± 0.01 | 0.78 ± 0.02 | 0.22 ± 0.001 | shorter lag phases | 0.67 ± 0.03 | 0.19 ± 0.02 | about 16 h |  |  | Relative inhibitory effect on Z. mobilis among vanillin, furfural and HMF (Z. mobilis): least effect; Growth of Lsm overexpression strains with inhibitor ([5]; 1.5 g/L): slight growth advantage |
| COc1cc(C=O)ccc1O [Vanillin, vanillin] |  |  |  |  |  |  | 0.69 ± 0.006 | 0.26 ± 0.001 | 0.71 ± 0.01 | 0.26 ± 0.01 | 0.70 ± 0.01 | 0.20 ± 0.003 | shorter lag phases | 0.66 ± 0.01 | 0.20 ± 0.006 | ~21 h |  |  | Relative inhibitory effect on Z. mobilis among vanillin, furfural and HMF (Z. mobilis): most significant inhibitory effect; Growth of Lsm overexpression strains with inhibitor ([5]; 0.75 g/L): detrimental effect on growth |
| CC(=O)O.N [NH4OAc, ammonium acetate] | 0.42 ± 0.006 | 0.19 ± 0.005 | 0.32 ± 0.007 | 0.22 ± 0.002 | 0.37 ± 0.008 | 0.19 ± 0.007 |  |  |  |  |  |  |  |  |  |  | 0.43 ± 0.01 | 0.20 ± 0.008 | Growth of hfq mutant AcRIM0347 in the presence of acetate salt [3]: unable to grow |
| OO [H2O2, hydrogen peroxide] |  |  |  |  |  |  |  |  |  |  |  |  |  |  |  |  |  |  | Growth of ZM4 in RM medium with H2O2 ([1]; 0.001% H2O2): grew well; Growth of AcR in RM medium with H2O2 ([2]; 0.001% H2O2): grew well; Growth of AcRIM0347(p42-0347) in RM medium with H2O2 (AcRIM0347 (p42-0347); 0.001% H2O2): to grow; Growth of AcRIM0347 in RM medium with H2O2 ([3]; 0.001% H2O2): no observable growth |
| CC(=O)[O-].[K+] [Kac, potassium acetate] | 0.40 ± 0.000 | 0.12 ± 0.000 | 0.28 ± 0.007 | 0.09 ± 0.003 | 0.34 ± 0.004 | 0.12 ± 0.006 |  |  |  |  |  |  |  |  |  |  | 0.42 ± 0.002 | 0.15 ± 0.004 | Growth of hfq mutant AcRIM0347 in the presence of acetate salt [3]: unable to grow |
| O=Cc1ccco1 [Furfural, furfural] |  |  |  |  |  |  | 0.88 ± 0.006 | 0.31 ± 0.01 | 0.89 ± 0.009 | 0.30 ± 0.005 | 0.80 ± 0.02 | 0.20 ± 0.01 | shorter lag phases | 0.67 ± 0.001 | 0.19 ± 0.03 | ~19 h |  |  | Growth of Lsm overexpression strains with inhibitor ([5]; 1.5 g/L): slight growth advantage |
| [Cl-].[Na+] [NaCl, sodium chloride] | 0.96 ± 0.01 | 0.29 ± 0.005 | 0.72 ± 0.02 | 0.22 ± 0.009 | 0.84 ± 0.01 | 0.25 ± 0.008 |  |  |  |  |  |  |  |  |  |  | 0.73 ± 0.01 | 0.24 ± 0.008 | Relative inhibitory effect on wild-type Z. mobilis growth among sodium and acetate salts [1]: least negative influence; Reduction of growth rate and final cell density of AcRIM0347 compared to parental strain AcR [3]: reduced by at least a quarter; Final Cell Density [3, 11]: 0.73 ± 0.03 OD600 nm; Growth rate [3, 11]: 0.21 ± 0.008 h⁻¹; Growth differences between Lsm mutants and wild-type BY4741 ([4]; 305 mM NaCl in CM broth): not observed; Growth of Lsm overexpression strains compared to wild-type BY4741 ([5]; 305 mM NaCl): grew similarly to wild-type BY4741 |
